Laboratory results reported in publication PMC11284788, “NN1213 – A Potent, Long-Acting, and Selective Analog of Human Amylin” (Journal of Medicinal Chemistry, 2024).

How the values were obtained:
[1] = biological target: T1, mAMY3R (Mus musculus, UniProt Q60755+Q9WUP1); experiment: Mouse receptor cAMP HTRF assay (BacMam, HeLa), mAMY3R; conditions: ratio of cAMP EC50 values, mouse receptors
T1 sequence (Q60755 42-496 isoform Q60755-2 limits assumed): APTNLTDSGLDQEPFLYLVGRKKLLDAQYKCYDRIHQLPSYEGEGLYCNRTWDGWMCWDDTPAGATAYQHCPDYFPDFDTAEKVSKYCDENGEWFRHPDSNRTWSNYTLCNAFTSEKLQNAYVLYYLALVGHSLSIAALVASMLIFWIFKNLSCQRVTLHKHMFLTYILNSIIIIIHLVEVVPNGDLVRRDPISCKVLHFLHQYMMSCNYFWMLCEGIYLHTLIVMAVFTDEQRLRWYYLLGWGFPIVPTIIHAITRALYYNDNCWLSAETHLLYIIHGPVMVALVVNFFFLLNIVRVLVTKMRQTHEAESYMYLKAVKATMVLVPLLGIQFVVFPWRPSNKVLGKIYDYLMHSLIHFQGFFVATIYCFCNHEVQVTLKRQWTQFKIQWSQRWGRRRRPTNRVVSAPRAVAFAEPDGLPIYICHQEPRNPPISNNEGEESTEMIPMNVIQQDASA
T1 sequence (Q9WUP1 24-147 partner limits assumed): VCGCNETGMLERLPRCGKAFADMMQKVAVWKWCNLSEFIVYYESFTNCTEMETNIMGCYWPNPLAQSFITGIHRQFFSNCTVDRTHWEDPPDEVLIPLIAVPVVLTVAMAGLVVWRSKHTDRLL
Protocol: Mouse Receptors (Functional Assay Only). Cell culture: HeLa cells were cultured in an incubator at 37 °C and 5% CO2, in cell culture medium (DMEM with 10% [v/v] FBS, 1% [w/w] penicillin/streptomycin).
Cell seeding in T75 flasks (day 1): The day before transfection of the cells, 2 x 10^6 HeLa cells were seeded in three T75 flasks and incubated overnight. Media was removed from 1–2 T175 flasks and cells were washed once with Dulbecco PBS (with Mg2+ and Ca2+). Cells were detached with 2 mL TrypLE Express for 5 min in an incubator. Five mL pre-warmed media was added to each T75 flask and mixed with the cell suspension. Cells were counted in 100 µL of this suspension. The cell suspension was centrifuged at 1200 rpm for 4 min and the supernatant was discarded. The cells were re-suspended in media and 2 x 10^6 cells were seeded in approximately 15 mL in each of the three T75 flasks. The flasks were incubated overnight.
with 20 µL poly-d-lysin/well for 2–3 h at 37 °C. The plates were washed twice with PBS and allowed
Transfection of cells (day 2): Reagents were acclimated to room temperature for 30 min. Media was
removed from the T75 flasks, and cells were washed once with PBS (with Mg2+ and Ca2+). Cells were
Seeding of transfected cells in assay plates (day 2): Following the 3-h transduction, T75 flasks were
washed once with PBS (with Mg2+ and Ca2+). […]
mL pre-warmed media and counted.

[2] = biological target: T2, rAMY3R (Rattus norvegicus, UniProt P32214+Q9JJ73); experiment: Whole-cell competition binding, rAMY3R; set-up: expressed in transfected cells; host or cells: BHK tk-ts 13, transient co-transfection (FuGENE 6); conditions: IC50 for the CTR divided by that of the AMYR, rat receptors
T2 sequence (P32214 25-479 isoform P32214-2 limits assumed): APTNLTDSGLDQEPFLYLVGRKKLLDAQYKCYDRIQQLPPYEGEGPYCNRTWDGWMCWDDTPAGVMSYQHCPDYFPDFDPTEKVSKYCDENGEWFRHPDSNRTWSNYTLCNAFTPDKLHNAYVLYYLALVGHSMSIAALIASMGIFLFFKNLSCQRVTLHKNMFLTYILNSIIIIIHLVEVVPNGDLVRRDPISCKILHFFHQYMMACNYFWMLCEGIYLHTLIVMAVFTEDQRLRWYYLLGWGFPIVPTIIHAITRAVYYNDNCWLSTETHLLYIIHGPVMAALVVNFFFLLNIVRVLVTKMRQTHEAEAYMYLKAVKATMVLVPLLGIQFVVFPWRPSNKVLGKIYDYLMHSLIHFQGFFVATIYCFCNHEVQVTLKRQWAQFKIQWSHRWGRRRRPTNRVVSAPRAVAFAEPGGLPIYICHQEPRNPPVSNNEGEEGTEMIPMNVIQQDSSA
T2 sequence (Q9JJ73 23-147 partner): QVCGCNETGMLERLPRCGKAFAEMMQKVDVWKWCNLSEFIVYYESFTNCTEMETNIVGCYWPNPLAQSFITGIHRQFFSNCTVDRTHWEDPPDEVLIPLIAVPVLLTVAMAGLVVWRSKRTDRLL

[3] = biological target: hAMY1R (Homo sapiens, UniProt O60894+P30988); experiment: Whole-cell competition binding, hAMY1R; set-up: expressed in transfected cells; host or cells: BHK tk-ts 13, transient co-transfection (FuGENE 6); conditions: IC50 for the CTR divided by that of the AMYR, human receptors
[4] = biological target: T3, rat AMY3R (Rattus norvegicus, UniProt P32214+Q9JJ73); experiment: cAMP FlashPlate assay, rat AMY3R; type: cell-based; conditions: ratio of cAMP EC50 values
T3 construct: expressed in transfected cells; host or cells: BHK tk-ts 13, transient co-transfection (FuGENE 6)
T3 sequence (P32214 25-479 isoform P32214-2 limits assumed): T2 sequence (P32214 25-479 isoform P32214-2 limits assumed)
T3 sequence (Q9JJ73 23-147 partner): T2 sequence (Q9JJ73 23-147 partner)

Chain of hAMY1R (P30988 25-474): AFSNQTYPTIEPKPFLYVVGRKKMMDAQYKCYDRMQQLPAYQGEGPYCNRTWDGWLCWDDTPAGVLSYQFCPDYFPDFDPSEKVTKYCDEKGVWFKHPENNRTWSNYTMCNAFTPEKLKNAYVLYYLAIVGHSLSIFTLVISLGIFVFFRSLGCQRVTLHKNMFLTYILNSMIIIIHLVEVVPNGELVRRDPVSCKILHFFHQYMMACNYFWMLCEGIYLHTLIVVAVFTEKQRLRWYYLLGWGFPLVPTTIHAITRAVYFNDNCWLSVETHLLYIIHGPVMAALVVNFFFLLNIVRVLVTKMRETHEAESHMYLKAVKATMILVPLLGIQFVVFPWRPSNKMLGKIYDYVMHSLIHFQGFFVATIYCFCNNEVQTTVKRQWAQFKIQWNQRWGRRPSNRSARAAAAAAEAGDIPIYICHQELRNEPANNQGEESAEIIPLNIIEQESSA
Chain of hAMY1R (O60894 27-148 partner): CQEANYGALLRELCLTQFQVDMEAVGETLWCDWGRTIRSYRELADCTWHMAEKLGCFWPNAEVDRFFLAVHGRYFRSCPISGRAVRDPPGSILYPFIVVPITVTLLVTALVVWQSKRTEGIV

CC[C@H](C)[C@H](NC(=O)[C@H](C)NC(=O)CNC(=O)[C@H](Cc1ccccc1)NC(=O)[C@H](CC(N)=O)NC(=O)[C@@H]1CCCN1C(=O)[C@H](CO)NC(=O)[C@H](CO)NC(=O)[C@H](Cc1c[nH]cn1)NC(=O)[C@H](CCCNC(=N)N)NC(=O)[C@H](CC(C)C)NC(=O)[C@H](Cc1ccccc1)NC(=O)[C@H](CC(=O)O)NC(=O)[C@H](C)NC(=O)[C@H](CC(C)C)NC(=O)[C@H](CCCNC(=N)N)NC(=O)[C@H](CCC(N)=O)NC(=O)[C@@H](NC(=O)[C@H](C)NC(=O)[C@@H]1CSSC[C@H](NC(=O)[C@@H](N)CCCCNC(=O)CC[C@H](NC(=O)CC[C@H](NC(=O)CCCCCCCCCCCCCCCCCCC(=O)O)C(=O)O)C(=O)O)C(=O)N[C@@H](CC(N)=O)C(=O)N[C@@H]([C@@H](C)O)C(=O)N[C@@H](C)C(=O)N[C@@H]([C@@H](C)O)C(=O)N1)[C@@H](C)O)C(=O)N1CCC[C@H]1C(=O)N[C@@H](CO)C(=O)N[C@@H](CO)C(=O)N[C@H](C(=O)N[C@@H](CC(N)=O)C(=O)N[C@H](C(=O)NCC(=O)N[C@@H](CO)C(=O)N[C@@H](CCCNC(=N)N)C(=O)N[C@H](C(=O)N[C@@H](Cc1ccc(O)cc1)C(N)=O)[C@@H](C)O)C(C)C)[C@@H](C)O [NN1213]
Ratio CTR/AMY3R (mouse, functional) [1]: 24
Ratio CTR/AMY3R (rat, binding) [2]: 52
Ratio CTR/AMY1R (human, binding) [3]: 120
ratio rCTR/rAMY3R [4]: 391
